Measured values: publication PMC9090415, “Discovery of small molecule inhibitors of Plasmodium falciparum apicoplast DNA polymerase” (Journal of Enzyme Inhibition and Medicinal Chemistry, 2022)

Molecular target: T1, bacteriophage T4 DNA polymerase (Enterobacteria phage T4, UniProt P04415)
T1 construct: made in house
T1 sequence (P04415 1-898): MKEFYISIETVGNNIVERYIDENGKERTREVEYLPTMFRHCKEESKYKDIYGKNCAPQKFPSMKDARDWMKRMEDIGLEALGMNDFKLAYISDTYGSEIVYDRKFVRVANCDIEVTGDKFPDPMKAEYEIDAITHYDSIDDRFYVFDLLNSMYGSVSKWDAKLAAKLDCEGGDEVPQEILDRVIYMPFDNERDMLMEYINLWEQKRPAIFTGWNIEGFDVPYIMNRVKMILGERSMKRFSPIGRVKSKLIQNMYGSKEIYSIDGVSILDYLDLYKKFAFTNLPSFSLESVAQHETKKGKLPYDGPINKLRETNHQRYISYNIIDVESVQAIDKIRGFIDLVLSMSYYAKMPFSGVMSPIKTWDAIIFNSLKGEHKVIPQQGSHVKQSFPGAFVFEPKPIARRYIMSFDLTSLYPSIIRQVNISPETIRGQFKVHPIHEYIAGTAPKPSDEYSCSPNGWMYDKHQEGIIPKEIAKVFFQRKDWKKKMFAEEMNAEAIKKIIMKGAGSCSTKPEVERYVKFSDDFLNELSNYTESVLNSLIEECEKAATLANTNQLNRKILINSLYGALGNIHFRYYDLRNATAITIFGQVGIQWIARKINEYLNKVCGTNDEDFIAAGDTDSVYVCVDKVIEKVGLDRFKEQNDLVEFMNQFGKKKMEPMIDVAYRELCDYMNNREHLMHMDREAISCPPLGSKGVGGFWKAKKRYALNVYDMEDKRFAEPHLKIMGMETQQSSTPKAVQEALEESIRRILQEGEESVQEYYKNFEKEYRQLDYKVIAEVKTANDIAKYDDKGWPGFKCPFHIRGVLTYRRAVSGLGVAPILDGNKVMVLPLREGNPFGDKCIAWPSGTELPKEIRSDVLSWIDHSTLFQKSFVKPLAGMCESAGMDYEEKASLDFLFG
Test: Counter-screen against bacteriophage T4 DNA polymerase
Format: biochemical
Conditions: for % inhibition T4 10' 2.5 / % inhibition T4 10' 5 / % inhibition T4 10' 10 / % inhibition T4 10' 20 / % inhibition T4 10' 40 / % inhibition T4 10' 80: read at 10'; for % inhibition T4 70' 2.5 / % inhibition T4 70' 5 / % inhibition T4 70' 10 / % inhibition T4 70' 20 / % inhibition T4 70' 40 / % inhibition T4 70' 80: read at 70'; for % inhibition T4 130' 2.5 / % inhibition T4 130' 5 / % inhibition T4 130' 10 / % inhibition T4 130' 20 / % inhibition T4 130' 40 / % inhibition T4 130' 80: read at 130'; for % inhibition T4 40' 2.5 / % inhibition T4 40' 5 / % inhibition T4 40' 10 / % inhibition T4 40' 20 / % inhibition T4 40' 40 / % inhibition T4 40' 80: read at 40'; for % inhibition T4 180' 2.5 / % inhibition T4 180' 5 / % inhibition T4 180' 10 / % inhibition T4 180' 20 / % inhibition T4 180' 40 / % inhibition T4 180' 80: read at 180'
Method in brief: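 Purified T4 DNA polymerase, a B-family enzyme, served as the counter-screen enzyme. Compounds were tested in dose-response format and IC50 values were derived.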

[1] = DRC-2, read at 90', concentration 2.5
[2] = DRC-2, read at 90', concentration 10
[3] = DRC-2, read at 90', concentration 20
[4] = DRC-2, read at 90', concentration 40
[5] = DRC-2, read at 90', concentration 80

## CC(NC(=O)Cc1cc(=O)[nH]c(SCc2cccc(Cl)c2)n1)c1ccccc1 (stereo not drawn) [Molecule 67, O=C(NC(c1ccccc1)C)Cc1nc(SCc2cccc(c2)Cl)[nH]c(=O)c1]
DRC-2, concentration 10
  % inhibition T4 10': 19%
  % inhibition T4 40': 19%
  % inhibition T4 90': 18%
DRC-2, concentration 20
  % inhibition T4 10': 18%
  % inhibition T4 40': 19%
  % inhibition T4 90': 18%
DRC-2, concentration 80
  % inhibition T4 10': 31%
DRC-2, concentration 2.5
  % inhibition T4 40': -9%
  % inhibition T4 90': -9%
DRC-2, concentration 40
  % inhibition T4 40': 31%

## Cc1ccsc1Cn1c(C)ccc1C [Molecule 70, Cc1ccsc1Cn1c(C)ccc1C]
DRC-1, concentration 2.5
  % inhibition T4 10' 2.5: -4.493%
  % inhibition T4 70' 2.5: -3.335%
  % inhibition T4 130' 2.5: -4.899%
DRC-1, concentration 5
  % inhibition T4 10' 5: -2.675%
  % inhibition T4 70' 5: -3.037%
  % inhibition T4 130' 5: -4.557%
DRC-1, concentration 10
  % inhibition T4 10' 10: 9.004%
  % inhibition T4 70' 10: 6.944%
  % inhibition T4 130' 10: 3.714%
DRC-1, concentration 20
  % inhibition T4 10' 20: 13.0915%
  % inhibition T4 70' 20: 8.488%
  % inhibition T4 130' 20: 4.205%
DRC-1, concentration 40
  % inhibition T4 10' 40: 20.7391%
  % inhibition T4 70' 40: 14.2763%
  % inhibition T4 130' 40: 10.2962%
DRC-1, concentration 80
  % inhibition T4 10' 80: -6.46%
  % inhibition T4 70' 80: -12.9684%
  % inhibition T4 130' 80: -25.7177%
DRC-2, concentration 2.5
  % inhibition T4 10' 2.5: -7%
  % inhibition T4 40' 2.5: -7%
  % inhibition T4 180' 2.5: -7%
DRC-2, concentration 5
  % inhibition T4 10' 5: -1.66%
  % inhibition T4 40' 5: -2%
  % inhibition T4 180' 5: -9%
DRC-2, concentration 10
  % inhibition T4 10' 10: 10%
  % inhibition T4 40' 10: 10%
  % inhibition T4 180' 10: 1.9%
DRC-2, concentration 20
  % inhibition T4 10' 20: 11%
  % inhibition T4 40' 20: 11%
  % inhibition T4 180' 20: 4%
DRC-2, concentration 40
  % inhibition T4 10' 40: 14%
  % inhibition T4 40' 40: 14%
  % inhibition T4 180' 40: 8%
DRC-2, concentration 80
  % inhibition T4 10' 80: 7.37%
  % inhibition T4 40' 80: 7%
  % inhibition T4 180' 80: 1.21%
[1]
  % inhibition T4 90' 2.5: -5%
DRC-2, read at 90', concentration 5
  % inhibition T4 90' 5: -2.51%
[2]
  % inhibition T4 90' 10: 8%
[3]
  % inhibition T4 90' 20: 9%
[4]
  % inhibition T4 90' 40: 12%
[5]
  % inhibition T4 90' 80: 5%

## CC(=O)OCC1=C(C(=O)[O-])N2C(=O)[C@@H](NC(=O)Cc3cccs3)[C@H]2SC1.[Na+] [Molecule 73, CC(=O)OCC1=C(C(=O)[O-])N2[C@H](SC1)[C@@H](C2=O)NC(=O)Cc1cccs1.[Na+]]
DRC-1, concentration 2.5
  % inhibition T4 10' 2.5: 11.7205%
  % inhibition T4 70' 2.5: 9.196%
  % inhibition T4 130' 2.5: 4.91%
DRC-1, concentration 5
  % inhibition T4 10' 5: 17.9504%
  % inhibition T4 70' 5: 11.8887%
  % inhibition T4 130' 5: 7.499%
DRC-1, concentration 10
  % inhibition T4 10' 10: 24.8784%
  % inhibition T4 70' 10: 17.9088%
  % inhibition T4 130' 10: 13.1805%
DRC-1, concentration 20
  % inhibition T4 10' 20: 32.107%
  % inhibition T4 70' 20: 22.6844%
  % inhibition T4 130' 20: 16.8593%
DRC-1, concentration 40
  % inhibition T4 10' 40: 49.9492%
  % inhibition T4 70' 40: 42.1653%
  % inhibition T4 130' 40: 38.0136%
DRC-1, concentration 80
  % inhibition T4 10' 80: 43.1529%
  % inhibition T4 70' 80: 41.199%
  % inhibition T4 130' 80: 33.8147%
DRC-2, concentration 2.5
  % inhibition T4 10' 2.5: 0.14%
  % inhibition T4 40' 2.5: 0.442%
  % inhibition T4 180' 2.5: 0.485%
DRC-2, concentration 5
  % inhibition T4 10' 5: 0.574%
  % inhibition T4 40' 5: 0.491%
  % inhibition T4 180' 5: -2.85%
DRC-2, concentration 10
  % inhibition T4 10' 10: 12%
  % inhibition T4 40' 10: 11%
  % inhibition T4 180' 10: 6.41%
DRC-2, concentration 20
  % inhibition T4 10' 20: 17%
  % inhibition T4 40' 20: 17%
  % inhibition T4 180' 20: 14%
DRC-2, concentration 40
  % inhibition T4 10' 40: 26%
  % inhibition T4 40' 40: 25%
  % inhibition T4 180' 40: 20%
DRC-2, concentration 80
  % inhibition T4 10' 80: 36%
  % inhibition T4 40' 80: 42%
  % inhibition T4 180' 80: 41%
[1]
  % inhibition T4 90' 2.5: 1.28%
[2]
  % inhibition T4 90' 10: 10%
[3]
  % inhibition T4 90' 20: 17%
[4]
  % inhibition T4 90' 40: 23%
[5]
  % inhibition T4 90' 80: 41%

## CC(C)(C)OC(=O)COc1ccc2cc(-c3ccccc3)c(=O)oc2c1 [Molecule 81, O=C(OC(C)(C)C)COc1ccc2c(c1)oc(=O)c(c2)c1ccccc1]
DRC-2, concentration 10
  % inhibition T4 10': 13%
  % inhibition T4 40': 10%
  % inhibition T4 90': 10%
  % inhibition T4 180': 7%
DRC-2, concentration 40
  % inhibition T4 10': 7%
DRC-2, concentration 2.5
  % inhibition T4 40': 16%
  % inhibition T4 90': 16%
  % inhibition T4 180': 13%
DRC-2, concentration 5
  % inhibition T4 40': 13%
  % inhibition T4 90': 13%
DRC-2, concentration 20
  % inhibition T4 40': 6%
  % inhibition T4 90': 6%
DRC-2, concentration 80
  % inhibition T4 40': 6%

## Cc1ccc(C(=O)/C=C/C=C/C=C/N(C)C)o1 [Molecule 96, CN(/C=C/C=C/C=C/C(=O)c1ccc(o1)C)C]
DRC-2, concentration 10
  % inhibition T4 10': 11%
DRC-2, concentration 5
  % inhibition T4 90': 11%
